Measured values reported in patent US7704992B2, “Hepatitis C virus inhibitors” (Bristol-Myers Squibb Company, priority 2008, dated 2010).
Where two headings read alike, the source gives them in different places.

Tested on: HCV 1b-377-neo replicon cells
Test: HCV Replicon assay, HCV 1b genotype
Type: cell-based
Method: An HCV Replicon assay was utilized in the present disclosure, and was prepared, conducted and validated as described in commonly owned PCT/US2006/022197 and in O'Boyle et. al. Antimicrob Agents Chemother. 2005 April; 49(4): 1346-53.
HCV 1b-377-neo replicon cells were used to test the currently described compound series as well as cells resistant to compound A containing a Y2065H mutation in NS5A (described in application PCT/US2006/022197). The compounds tested were determined to have more than 10-fold less inhibitory activity on cells containing the mutation than wild-type cells indicating a related mechanism of action between the two compound series. Thus, the compounds of the present disclosure can be effective to inhibit the function of the HCV NS5A protein and are understood to be as effective in combinations as previously described in application PCT/US2006/022197 and commonly owned WO/04014852. Further, the compounds of the present disclosure can be effective against the HCV 1b genotype. It should also be understood that the compounds of the present disclosure can inhibit multiple genotypes of HCV. […] In one embodiment compounds of the present disclosure are active against the 1a, 1b, 2a, 2b, 3a, 4a, and 5a genotypes.

[1] = Hepatitis C virus, class symbol, read-out: EC50 range against HCV 1b

Question: `COC(=O)N[C@@H](C)C(=O)N1CCC[C@H]1c1ncc(-c2ccc3c(c2)COCc2cc(-c4cnc([C@@H]5CCCN5C(=O)[C@H](C)NC(=O)OC)[nH]4)ccc2-3)[nH]1` [Example 9, methyl ((1S)-2-((2S)-2-(4-(9-(2-((2S)-1-(N-(methoxycarbonyl)-L-alanyl)-2-pyrrolidinyl)-1H-imidazol-4-yl)-5,7-dihydrodibenzo[c,e]oxepin-3-yl)-1H-imidazol-2-yl)-1-pyrrolidinyl)-1-methyl-2-oxoethyl)carbamate] was tested. Which EC50 [1] did it give?
Answer: 1 to 100 pM

Question: How did the EC50 [1] turn out when `COC(=O)N[C@H](C(=O)N1CCC[C@H]1c1ncc(-c2ccc3c(c2)oc2cc(-c4cnc([C@@H]5CCCN5C(=O)[C@@H](NC(=O)OC)C(C)C)[nH]4)ccc23)[nH]1)C(C)C` [Example 18, methyl ((1S)-1-(((2S)-2-(4-(7-(2-((2S)-1-((2S)-2-((methoxycarbonyl)amino)-3-methylbutanoyl)-2-pyrrolidinyl)-1H-imidazol-4-yl)dibenzo[b,d]furan-3-yl)-1H-imidazol-2-yl)-1-pyrrolidinyl)carbonyl)-2-methylpropyl)carbamate] was run?
Answer: 1 to 100 pM

Question: Which EC50 [1] does the source give for `COC(=O)N[C@H](C(=O)N1CCC[C@H]1c1ncc(-c2ccc3c(c2)COCc2cc(-c4cnc([C@@H]5CCCN5C(=O)[C@@H](NC(=O)OC)C(C)C)[nH]4)ccc2-3)[nH]1)C(C)C` [Example 8, methyl ((1S)-1-(((2S)-2-(5-(9-(2-((2S)-1-((2S)-2-((methoxycarbonyl)amino)-3-methylbutanoyl)-2-pyrrolidinyl)-1H-imidazol-4-yl)-5,7-dihydrodibenzo[c,e]oxepin-3-yl)-1H-imidazol-2-yl)-1-pyrrolidinyl)carbonyl)-2-methylpropyl)carbamate] here?
Answer: 1 to 100 pM

Question: How did the EC50 [1] turn out when `CCN(CC)C(C(=O)N1CCC[C@H]1c1ncc(-c2ccc3c(c2)CN(C)Cc2cc(-c4cnc([C@@H]5CCCN5C(=O)C(c5ccccc5)N(CC)CC)[nH]4)ccc2-3)[nH]1)c1ccccc1` (stereo in doubt) [Example 7, (1S,1′S) -2,2′-((6-methyl-6,7-dihydro-5H-dibenzo[c,e]azepine-3,9-diyl)bis(1H-imidazole-4,2-diyl(2S)-2,1-pyrrolidinediyl)) bis(N,N-diethyl-2-oxo-1-phenylethanamine)] was run?
Answer: 101 to 999 pM

Question: How did the EC50 [1] turn out when `COC(=O)N[C@H](C(=O)N1CCC[C@H]1c1ncc(-c2ccc3c(c2)Cc2cc(-c4cnc([C@@H]5CCCN5C(=O)[C@@H](NC(=O)OC)[C@@H](C)OC)[nH]4)ccc2-3)[nH]1)[C@@H](C)OC` [Example 5, methyl ((1S,2R)-2-methoxy-1-(((2S)-2-(5-(7-(2-((2S)-1-(N-(methoxycarbonyl)-O-methyl-L-threonyl)-2-pyrrolidinyl)-1H-imidazol-5-yl)-9H-fluoren-2-yl)-1H-imidazol-2-yl)-1-pyrrolidinyl)carbonyl)propyl)carbamate] was run?
Answer: 1 to 100 pM

Question: For `COC(=O)N[C@H](C(=O)N1CCC[C@H]1c1ncc(-c2ccc3c(c2)C(O)c2cc(-c4cnc([C@@H]5CCCN5C(=O)[C@@H](NC(=O)OC)C(C)C)[nH]4)ccc2-3)[nH]1)C(C)C` [Example 2, methyl ((1S)-1-(((2S)-2-(5-(9-hydroxy-7-(2-((2S)-1-((2S)-2-((methoxycarbonyl)amino)-3-methylbutanoyl)-2-pyrrolidinyl)-1H-imidazol-5-yl)-9H-fluoren-2-yl)-1H-imidazol-2-yl)-1-pyrrolidinyl)carbonyl)-2-methylpropyl)carbamate], which EC50 [1] is on record?
Answer: 101 to 999 pM

Question: Which EC50 [1] does the source give for `COC(=O)N[C@H](C(=O)N1CCC[C@H]1c1ncc(-c2ccc3c(c2)oc2cc(-c4cnc([C@@H]5CCCN5C(=O)[C@@H](NC(=O)OC)C(C)(C)O)[nH]4)ccc23)[nH]1)C(C)(C)O` [Example 21, methyl ((1S)-2-hydroxy-1-(((2S)-2-(4-(7-(2-((2S)-1-((2S)-3-hydroxy-2-((methoxycarbonyl)amino)-3-methylbutanoyl)-2-pyrrolidinyl)-1H-imidazol-4-yl)dibenzo[b,d]furan-3-yl)-1H-imidazol-2-yl)-1-pyrrolidinyl)carbonyl)-2-methylpropyl)carbamate] here?
Answer: 1 to 100 pM

Question: `COC(=O)N[C@H](C(=O)N1CCC[C@H]1c1ncc(-c2ccc3c(c2)C2(CCC2)c2cc(-c4cnc([C@@H]5CCCN5C(=O)[C@@H](NC(=O)OC)C(C)C)[nH]4)ccc2-3)[nH]1)C(C)C` [Example 16, methyl ((1S)-1-(((2S)-2-(5-(7′-(2-((2S)-1-((2S)-2-((methoxycarbonyl)amino)-3-methylbutanoyl)-2-pyrrolidinyl)-1H-imidazol-5-yl)spiro[cyclobutane-1,9′-fluoren]-2′-yl)-1H-imidazol-2-yl)-1-pyrrolidinyl)carbonyl)-2-methylpropyl)carbamate] was tested. Which EC50 [1] did it give?
Answer: 1 to 100 pM

Question: `COC(=O)N[C@@H](C)C(=O)N1CCC[C@H]1c1ncc(-c2ccc3c4ccc(-c5cnc([C@@H]6CCCN6C(=O)[C@H](C)NC(=O)OC)[nH]5)cc4n(C)c3c2)[nH]1` [Example 22, methyl ((1S)-2-((2S)-2-(5-(7-(2-((2S)-1-(N-(methoxycarbonyl)-L-alanyl)-2-pyrrolidinyl)-1H-imidazol-5-yl)-9-methyl-9H-carbazol-2-yl)-1H-imidazol-2-yl)-1-pyrrolidinyl)-1-methyl-2-oxoethyl)carbamate] was tested. Which EC50 [1] did it give?
Answer: 1000 to 99000 pM

Question: With `COC(=O)N[C@H](C(=O)N1CCC[C@H]1c1ncc(-c2ccc3c(c2)C(=O)c2cc(-c4cnc([C@@H]5CCCN5C(=O)[C@@H](NC(=O)OC)C(C)C)[nH]4)ccc2-3)[nH]1)C(C)C` [Example 1, methyl ((1S)-1-(((2S)-2-(5-(7-(2-((2S)-1-((2S)-2-((methoxycarbonyl)amino)-3-methylbutanoyl)-2-pyrrolidinyl)-1H-imidazol-5-yl)-9-oxo-9H-fluoren-2-yl)-1H-imidazol-2-yl)-1-pyrrolidinyl)carbonyl)-2-methylpropyl)carbamate] as the compound, how does the EC50 (Hepatitis C virus, value in pM, read-out: EC50 value against HCV 1b) read?
Answer: 9 pM

Question: How did the EC50 [1] turn out when `COCC[C@H](NC(=O)OC)C(=O)N1CCC[C@H]1c1ncc(-c2ccc3c(c2)[nH]c2cc(-c4cnc([C@@H]5CCCN5C(=O)[C@H](CCOC)NC(=O)OC)[nH]4)ccc23)[nH]1` [Example 31, methyl ((1S)-3-methoxy-1-(((2S)-2-(5-(7-(2-((2S)-1-(N-(methoxycarbonyl)-O-methyl-L-homoseryl)-2-pyrrolidinyl)-1H-imidazol-5-yl)-9H-carbazol-2-yl)-1H-imidazol-2-yl)-1-pyrrolidinyl)carbonyl)propyl) carbamate] was run?
Answer: 1000 to 99000 pM

Question: For `COCC[C@H](NC(=O)OC)C(=O)N1CCC[C@H]1c1ncc(-c2ccc3c4ccc(-c5cnc([C@@H]6CCCN6C(=O)[C@H](CCOC)NC(=O)OC)[nH]5)cc4n(C)c3c2)[nH]1` [Example 24, methyl ((1S)-3-methoxy-1-(((2S)-2-(5-(7-(2-((2S)-1-(N-(methoxycarbonyl)-O-methyl-L-homoseryl)-2-pyrrolidinyl)-1H-imidazol-5-yl)-9-methyl-9H-carbazol-2-yl)-1H-imidazol-2-yl)-1-pyrrolidinyl)carbonyl)propyl) carbamate], which EC50 (class symbol, read-out: EC50 range against HCV 1b) is on record?
Answer: 101 to 999 pM

Question: How did the EC50 [1] turn out when `COCC[C@H](NC(=O)OC)C(=O)N1CCC[C@H]1c1ncc(-c2ccc3c4ccc(-c5cnc([C@@H]6CCCN6C(=O)[C@H](CCOC)NC(=O)OC)[nH]5)cc4n(S(=O)(=O)c4ccccc4)c3c2)[nH]1` [Example 28, methyl ((1S)-3-methoxy-1-(((2S)-2-(5-(7-(2-((2S)-1-(N-(methoxycarbonyl)-O-methyl-L-homoseryl)-2-pyrrolidinyl)-1H-imidazol-5-yl)-9-(phenylsulfonyl)-9H-carbazol-2-yl)-1H-imidazol-2-yl)-1-pyrrolidinyl)carbonyl)propyl)carbamate] was run?
Answer: 1 to 100 pM
